Results reported in ChEMBL document CHEMBL4418910, “Methods for categorising cancer such as breast cancer” (2018).

Legend:
[1] = biological target: T1, Serine/threonine-protein kinase LMTK3 (Homo sapiens) (UniProt Q96Q04); test: Inhibition of N-terminal GST tag LMTK3 kinase domain (133 to 415 amino acids) (unknown origin) expressed in insect cells incubated for 120 mins by […] fluorescent detection based CisBio KinEASE STK-S1 kit based assay relative to untreated control
T1 sequence (whole entry): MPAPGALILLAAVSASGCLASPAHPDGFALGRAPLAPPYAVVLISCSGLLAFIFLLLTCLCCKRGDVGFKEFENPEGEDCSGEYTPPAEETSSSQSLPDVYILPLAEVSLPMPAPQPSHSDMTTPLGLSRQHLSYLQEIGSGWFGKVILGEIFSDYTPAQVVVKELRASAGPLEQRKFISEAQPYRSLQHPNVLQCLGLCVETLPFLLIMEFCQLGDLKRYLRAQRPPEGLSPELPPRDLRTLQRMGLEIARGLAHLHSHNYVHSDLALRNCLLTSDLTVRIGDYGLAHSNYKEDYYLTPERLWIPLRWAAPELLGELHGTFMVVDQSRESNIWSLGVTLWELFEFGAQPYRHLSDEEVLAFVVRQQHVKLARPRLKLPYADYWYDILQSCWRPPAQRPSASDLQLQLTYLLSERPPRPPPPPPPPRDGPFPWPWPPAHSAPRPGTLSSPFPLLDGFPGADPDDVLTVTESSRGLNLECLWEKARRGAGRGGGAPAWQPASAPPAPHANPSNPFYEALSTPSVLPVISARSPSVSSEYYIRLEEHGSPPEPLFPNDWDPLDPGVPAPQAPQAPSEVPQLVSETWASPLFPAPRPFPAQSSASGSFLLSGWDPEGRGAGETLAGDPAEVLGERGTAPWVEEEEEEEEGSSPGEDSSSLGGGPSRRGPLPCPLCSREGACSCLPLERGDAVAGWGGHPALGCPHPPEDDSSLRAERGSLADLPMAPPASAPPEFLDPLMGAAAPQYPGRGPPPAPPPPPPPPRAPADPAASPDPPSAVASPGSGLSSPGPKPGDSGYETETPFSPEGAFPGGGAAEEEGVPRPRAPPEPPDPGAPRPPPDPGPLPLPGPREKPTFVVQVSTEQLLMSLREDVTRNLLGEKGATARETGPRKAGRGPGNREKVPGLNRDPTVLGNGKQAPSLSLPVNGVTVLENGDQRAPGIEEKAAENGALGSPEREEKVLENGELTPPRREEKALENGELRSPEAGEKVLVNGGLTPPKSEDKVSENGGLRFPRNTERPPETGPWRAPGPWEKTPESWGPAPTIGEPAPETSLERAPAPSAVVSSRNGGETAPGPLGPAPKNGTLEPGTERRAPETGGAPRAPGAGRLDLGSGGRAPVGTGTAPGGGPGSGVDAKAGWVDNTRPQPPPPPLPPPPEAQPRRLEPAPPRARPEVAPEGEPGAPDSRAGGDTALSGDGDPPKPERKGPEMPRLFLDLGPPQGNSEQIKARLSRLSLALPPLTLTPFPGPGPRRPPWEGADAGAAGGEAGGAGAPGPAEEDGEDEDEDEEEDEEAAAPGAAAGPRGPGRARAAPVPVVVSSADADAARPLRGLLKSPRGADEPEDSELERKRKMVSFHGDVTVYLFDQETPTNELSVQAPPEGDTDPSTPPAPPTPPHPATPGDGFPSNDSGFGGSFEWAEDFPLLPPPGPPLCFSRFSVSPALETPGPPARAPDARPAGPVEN

[2] = biological target: T2, Serine/threonine-protein kinase LMTK3 (Homo sapiens, UniProt Q96Q04); test: Inhibition of N-terminal GST tag LMTK3 kinase domain (133 to 415 amino acids) (unknown origin) expressed in insect cells incubated for 120 mins by […] fluorescent detection based CisBio KinEASE STK-S1 kit based assay
T2 sequence (Q96Q04 whole entry): T1 sequence (whole entry)

IC50 [2] [nM]	Structure (SMILES)	inhibition [1] [%]
–	CN[C@@H]1C[C@H]2O[C@@](C)([C@@H]1OC)n1c3ccccc3c3c4c(c5c6ccccc6n2c5c31)C(=O)NC4	109
–	COC(=O)[C@@]1(O)C[C@H]2O[C@]1(C)n1c3ccccc3c3c4c(c5c6ccccc6n2c5c31)C(=O)NC4	98.9
0.132	CN(C)CCCn1cc(C2=C(c3c[nH]c4ccccc34)C(=O)NC2=O)c2ccccc21 [GF-109203]	108
0.117	CCCCCCOC(=O)[C@]1(O)C[C@H]2O[C@]1(C)n1c3ccccc3c3c4c(c5c6ccccc6n2c5c31)C(=O)NC4	98.7
